Tested on: fire ants
Assay: fire ant kill test in insecticide-coated mason jar (time to death of entire population)
Type: in vivo
Conditions: Table 1
Experimental: In this example a series of commercially available insecticides were tested at various dilution levels and with and without a preferred copolymer, namely the AVAIL® copolymer previously described (a 40%-60% w/w aqueous composition of a saturated sodium salt of a maleic anhydride/itaconic acid copolymer in water). In each set of test runs, the selected insecticide was tested with a population of fire ants in order to determine the time required to kill the entire population.
In particular, in each test run 20 ml of the respective liquid insecticide composition was added to a mason jar and swirled around the inside bottom thereof. The liquid was then poured off and the remainder was allowed to dry on the inner jar surface, creating substantially a monomeric dried layer. The outside neck surface of the jar was then coated in talc, and the open end of the jar was placed into a fire ant nest. The talc coating prevented the aggressive fire ants from climbing the outer surface of the jar. A population of fire ants was thus established in each jar, and the jar was then topped with an apertured mason jar cap. The time to death of all of the fire ants was then recorded.
In each case, the recommended concentration of insecticide was prepared (recorded as “1X”), followed by dilutions with water to create the diluted compositions. Where copolymer was used, the copolymer was added to the insecticide with gentle mixing, at a level of 30 ml per gallon. If desired, lesser amounts of copolymer could be used, e.g., 20 ml per gallon.
In another series of tests, insecticides were tested with various copolymers having different ratios of maleic anhydride and itaconic acid moieties, and at different pH levels. In particular, respective copolymeric compositions were prepared made up of polymaleic acid, a 1:3 weight ratio of maleic anhydride to itaconic acid, a 1:1 weight ratio of maleic anhydride to itaconic acid, a 3:1 weight ratio of maleic anhydride to itaconic acid, and a 7:1 weight ratio of maleic anhydride to itaconic acid. […]

[1] = insecticide at 1X (recommended concentration), time to death of all fire ants

SMILES	TIME TO DEATH [1] [min]	TIME TO DEATH (insecticide at 1/3X dilution) [min]
CCOC(=O)CC(SP(=S)(OC)OC)C(=O)OCC (stereo not drawn) [malathion, 2-(dimethoxyphosphinothioylthio) butanedioic acid diethyl ester]	1	–
CC1(C)C(C=C(Cl)Cl)C1C(=O)OCc1cccc(Oc2ccccc2)c1 (stereo not drawn) [permethrin, (3-phenoxyphenyl)methyl 3-(2,2-dichloroethenyl)-2,2-dimethyl-cyclopropane-1-carboxylate]	5	5

Source: patent publication US7655597B1, “Pesticide compositions including polymeric adjuvants” (priority 2009, dated 2010)
